The values below come from patent publication US20240366498A1, “Reducing the Risk of Infection from Bacteria Present in Skin Pores During Surgery” (The Board of Trustees of the Leland Stanford Junior …, priority 2021, published 2024).

Where two headings read alike, the source gives them in different places. Where only a bound is given, the exact number is not on record here.

Common to all, as to assay type: cell-based
For test [1], the system named is Cutibacterium acnes strain 2 (BWH-002 25541381). Nature of the test: Growth of C. acnes strain 2 in RCM with antibacterial agent, optical density. The protocol:
(§1) Seven different strains of Cutibacterium acnes were grown in test tubes in Reinforced Clostridial Medium (RCM). Each strain was divided into different wells of mulita-well plates (96-well and 384-well plates were used). 80 μl was used and a 1:200 dilution from saturated cultures. Either an antibacterial agent or vehicle (as a control) was added to each well. Absorbance was measured and quantified as optical density (OD) as a proxy for cell biomass. The OD was recorded at regular intervals over several hours. […] The OD at 48 hours was estimated by calculating the average OD between 47 and 49 hours, and this value was used for further analyses. OD600 is the OD at 600 nm. The OD is listed in arbitrary units determined by the spectrophotometers. Such OD data was collected for different concentrations of each antibacterial agent. […] The horizontal axis has units of μM (micromoles per liter).

The subject of test [2] is Cutibacterium acnes strain 3 (BWH-003 25505801). Kind of test: Growth of C. acnes strain 3 in RCM with antibacterial agent, optical density. Here is the method: as §1
Test [3] deals with Cutibacterium acnes strain 10 (HM-523 (HL053PA2)). Nature of the test: Growth of C. acnes strain 10 in RCM with antibacterial agent, optical density. The protocol: as §1
Test [4] has as its system Cutibacterium acnes strain 12 (HM-539 (HL086PA1)). Kind of test: Growth of C. acnes strain 12 in RCM with antibacterial agent, optical density. Here is the method:
as §1

Test [5] relates to Cutibacterium acnes strain 13 (HM-552 (HL110PA1)). Kind of test: Growth of C. acnes strain 13 in RCM with antibacterial agent, optical density. The protocol:
as §1

In test [6] the test system is Cutibacterium acnes strain 15 (KPL2008). Kind of test: Growth of C. acnes strain 15 in RCM with antibacterial agent, optical density. Here is the method: as §1
The test system of test [7] is Cutibacterium acnes strain 16 (KPL1847). Nature of the test: Growth of C. acnes strain 16 in RCM with antibacterial agent, optical density. The protocol: as §1
The next test deals with Cutibacterium acnes. Kind of test: Effect of antibacterial agents on C. acnes, seven strains taken together. The conditions noted are these: across the tested strains. The protocol: Seven different strains of Cutibacterium acnes were grown in test tubes in Reinforced Clostridial Medium (RCM). Each strain was divided into different wells of mulita-well plates (96-well and 384-well plates were used). 80 μl was used and a 1:200 dilution from saturated cultures. Either an antibacterial agent or vehicle (as a control) was added to each well. Absorbance was measured and quantified as optical density (OD) as a proxy for cell biomass. The OD was recorded at regular intervals over several hours. […] The OD at 48 hours was estimated by calculating the average OD between 47 and 49 hours, and this value was used for further analyses. OD600 is the OD at 600 nm. The OD is listed in arbitrary units determined by the spectrophotometers.
Such OD data was collected for different concentrations of each antibacterial agent. […] The horizontal axis has units of μM (micromoles per liter). Next, IC50 values were calculated by assessing when the OD value was about 0.5.

Setting [8] is: strain 2, OD at 48 hours, RCM, read-out: IC50.
The mark [9] stands for this setting: strain 3, OD at 48 hours, RCM, read-out: IC50.
Where [10] appears, read: strain 10, OD at 48 hours, RCM, read-out: IC50.
Setting [11] is: strain 12, OD at 48 hours, RCM, read-out: IC50.
[12] abbreviates: strain 13, OD at 48 hours, RCM, read-out: IC50.
The mark [13] stands for this setting: strain 15, OD at 48 hours, RCM, read-out: IC50.
[14] abbreviates: strain 16, OD at 48 hours, RCM, read-out: IC50.

As usually defined, the IC50 is the concentration at which inhibition is half-maximal.

Consider `CC1(C)S[C@@H]2[C@H](NC(=O)[C@H](N)c3ccc(O)cc3)C(=O)N2[C@H]1C(=O)O` [Amoxicillin], for which the IC50 in test [1] (setting [8]) worked out at 0.078 µM; in test [2] (setting [9]), 0.0098 µM; in test [3] (setting [10]), 0.078 µM; in test [4] (setting [11]) it was 0.039 µM; in test [5] (setting [12]), 0.019 µM; in test [6] (setting [13]), 0.16 µM. Also, the IC50 in test [7] (setting [14]) is 0.31 µM. Also, the “IC50 values, in words” value with Cutibacterium acnes is given as “relatively low IC50 values”.

Regarding `O=C(OOC(=O)c1ccccc1)c1ccccc1` [Benzoyl Peroxide], the IC50 in test [1] (setting [8]) was 2560 µM; in test [2] (setting [9]), > 2560 µM; in test [3] (setting [10]), 1280 µM; in test [4] (setting [11]) it was 2560 µM; in test [5] (setting [12]) it was 640 µM; in test [6] (setting [13]), 640 µM. In addition, the IC50 in test [7] (setting [14]) came to 640 µM.

On to `CO/N=C(\C(=O)N[C@@H]1C(=O)N2C(C(=O)[O-])=C(C[N+]3(C)CCCC3)CS[C@H]12)c1csc(N)n1` [Cefepime], for which the IC50 in test [1] (setting [8]) was determined as 0.31 µM; in test [2] (setting [9]), 2.5 µM; in test [3] (setting [10]) it was 0.31 µM; in test [4] (setting [11]) it was 0.16 µM; in test [5] (setting [12]) it was 0.31 µM; in test [6] (setting [13]), 2.5 µM. For the same compound, the IC50 in test [7] (setting [14]) came out at 2.5 µM.

As for `CO/N=C(\C(=O)N[C@@H]1C(=O)N2C(C(=O)O)=C(CSc3nc(=O)c(=O)[nH]n3C)CS[C@H]12)c1csc(N)n1` [Ceftriaxone], the IC50 in test [1] (setting [8]) amounted to 0.0097 µM; in test [2] (setting [9]), 0.0098 µM; in test [3] (setting [10]), 0.0098 µM; in test [4] (setting [11]), 0.0098 µM; in test [5] (setting [12]), 0.0098 µM. Besides, in the test on Cutibacterium acnes, the “IC50 values, in words” value was “relatively low IC50 values”.

As to `C[C@@H](O)[C@H]1C(=O)N2C(C(=O)O)=C(S[C@@H]3CN[C@H](C(=O)Nc4cccc(C(=O)O)c4)C3)[C@H](C)[C@H]12` [Ertapenem], the IC50 in test [1] (setting [8]) turned out to be 0.039 µM; in test [2] (setting [9]), 0.16 µM; in test [3] (setting [10]) it was 0.078 µM; in test [4] (setting [11]), 0.0098 µM; in test [5] (setting [12]), 0.039 µM; in test [6] (setting [13]), 0.16 µM. In test [7] (setting [14]), the IC50 was determined as 0.31 µM.

`OO` [Hydrogen Peroxide]: the IC50 is 1280 µM in test [1] (setting [8]); 2560 µM in test [2] (setting [9]); 2560 µM in test [3] (setting [10]); 1280 µM in test [4] (setting [11]); 640 µM in test [5] (setting [12]); 2560 µM in test [6] (setting [13]). Besides, in test [7] (setting [14]), the IC50 was determined as 2560 µM.

`NC[C@H]1O[C@H](O[C@H]2[C@H](O)[C@@H](O[C@H]3O[C@H](CO)[C@@H](O)[C@H](N)[C@H]3O)[C@H](N)C[C@@H]2N)[C@H](O)[C@@H](O)[C@@H]1O` [Kanamycin]: the IC50 in test [1] (setting [8]) came out at 640 µM; in test [2] (setting [9]) it was 80 µM; in test [3] (setting [10]), 320 µM; in test [4] (setting [11]) it was 160 µM; in test [5] (setting [12]), 320 µM; in test [6] (setting [13]), 640 µM. In test [7] (setting [14]), the IC50 was found to be 160 µM.

As to `Cc1ncc([N+](=O)[O-])n1CCO` [Metronidazole], the IC50 in test [1] (setting [8]) is > 5120 µM; in test [2] (setting [9]), > 5120 µM; in test [3] (setting [10]), > 5120 µM; in test [4] (setting [11]), 5120 µM; in test [5] (setting [12]), 5120 µM; in test [6] (setting [13]) it was 5120 µM. The IC50 in test [7] (setting [14]) was > 5120 µM.

Regarding `CN[C@H](CC(C)C)C(=O)N[C@H]1C(=O)N[C@@H](CC(N)=O)C(=O)N[C@H]2C(=O)N[C@H]3C(=O)N[C@H](C(=O)N[C@H](C(=O)O)c4cc(O)cc(O)c4-c4cc3ccc4O)[C@H](O)c3ccc(c(Cl)c3)Oc3cc2cc(c3O[C@@H]2O[C@H](CO)[C@@H](O)[C@H](O)[C@H]2O[C@H]2C[C@](C)(N)[C@H](O)[C@H](C)O2)Oc2ccc(cc2Cl)[C@H]1O` [Vancomycin], the half-maximal inhibitory concentration (IC50) amounted to 0.16 µM in test [1] (48 h); 0.15 µM in test [2] (48 h); 0.16 µM in test [3] (48 h); 0.31 µM in test [4] (48 h); 0.16 µM in test [5] (48 h); 0.31 µM in test [6] (48 h). 0.31 µM corresponded to half-maximal inhibition in test [7] (48 h) (IC50).
